Results from patent US20230131899A1, “INHIBITORS OF MICROBIALLY INDUCED AMYLOID” (Axial Therapeutics, Inc., priority 2020, published 2023).
Where two headings read alike, the source gives them in different places.

Molecular target: T1, human α-synuclein (Homo sapiens, UniProt P37840)
T1 construct: the full-length gene for untagged human α-synuclein was inserted; made in house; host or cells: E. coli BL21(DE3), plasmid derived from pT7 or pET11a
Experiment: Cell-free Thioflavin T assay of α-synuclein aggregation (αSyn ThT Assay)
Type: biochemical
Settings: αSyn 50 μM
Procedure, shortened: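 Inhibition is reported as 100% minus background-corrected ThT signal relative to vehicle wells, taken at 36, 47, 48 or 72 h or the last read. Reactions held 50 μM recombinant α-synuclein, 20-100 μM compound, 20-40 μM ThT and 1% DMSO. Incubation was at 37° C., shaken, with a glass bead.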

[1] = class symbol, compounds 100 μM, read-out: αSyn ThT Assay % inhibition, activity range
[2] = mean percent inhibition relative to DMSO control, compounds 100 μM, read-out: αSyn ThT Assay % inhibition
[3] = mean % inhibition of αSyn aggregation relative to DMSO control, compounds at 100 μM, read-out: αSyn ThT Assay % Inhibition
[4] = compounds at 100 μM, class symbol, read-out: αSyn ThT Assay % Inhibition (activity range)

SMILES | inhibition at 100 µM [1] [%] | inhibition at 100 µM [2] [%] | inhibition at 100 µM [3] [%] | inhibition at 100 µM [4] [%]
CC(C)N1CC(C(=O)O)n2c1c(-c1cccc(C(F)(F)F)c1)c(Cc1cccc3ccccc13)c(Cl)c2=O (centres unmarked) [Compound 179, 6-chloro-1-isopropyl-7-(naphthalen-1-ylmethyl)-5-oxo-8-(3-(trifluoromethyl)phenyl)-1,2,3,5-tetrahydroimidazo[1,2-a]pyridine-3-carboxylic acid] | > 60 | 72 |  | 
CCCN1CC(C(=O)O)n2c(c(-c3cccc(C(F)(F)F)c3)c(C(F)(F)c3cccc4ccccc34)cc2=O)S1(=O)=O (centres unmarked) [Compound 138, 8-(difluoro(naphthalen-1-yl)methyl)-6-oxo-2-propyl-9-(3-(trifluoromethyl)phenyl)-3,4-dihydro-2H,6H-pyrido[1,2-e][1,2,5]thiadiazine-4-carboxylic acid 1,1-dioxide] | > 60 | 74 |  | 
CCCN1CC(C(=O)O)n2c(c(-c3cccc(C(F)(F)F)c3)c(Cc3cccc4ccccc34)cc2=O)S1(=O)=O (single isomer, unassigned) [Compound 016b, 8-(naphthalen-1-ylmethyl)-6-oxo-2-propyl-9-(3-(trifluoromethyl)phenyl)-3,4-dihydro-2H,6H-pyrido[1,2-e][1,2,5]thiadiazine-4-carboxylic acid 1,1-dioxide] |  |  | 95 | > 60
CCCN1CC(C(=O)O)n2c(c(-c3cccc(C(F)(F)F)c3)c(Cc3cccc4ccccc34)c(NC(=O)C(C)C)c2=O)S1(=O)=O (centres unmarked) [Compound 152, 7-isobutyramido-8-(naphthalen-1-ylmethyl)-6-oxo-2-propyl-9-(3-(trifluoromethyl)phenyl)-3,4-dihydro-2H,6H-pyrido[1,2-e][1,2,5]thiadiazine-4-carboxylic acid 1,1-dioxide] | 31 to 60 | 54 |  | 
CCNC(=O)c1c(Cc2cccc3ccccc23)c(-c2cccc(C(F)(F)F)c2)c2n(c1=O)C(C(=O)O)CN(C)S2(=O)=O (centres unmarked) [Compound 156, 7-(ethylcarbamoyl)-2-methyl-8-(naphthalen-1-ylmethyl)-6-oxo-9-(3-(trifluoromethyl)phenyl)-3,4-dihydro-2H,6H-pyrido[1,2-e][1,2,5] thiadiazine-4-carboxylic acid 1,1-dioxide] | > 60 | 70 |  | 
O=C(O)C1CN(Cc2ccncc2)c2c(-c3cccc(C(F)(F)F)c3)c(Cc3cccc4ccccc34)c(Cl)c(=O)n21 (centres unmarked) [Compound 174, 6-chloro-7-(naphthalen-1-ylmethyl)-5-oxo-1-(pyridin-4-ylmethyl)-8-(3-(trifluoromethyl)phenyl)-1,2,3,5-tetrahydroimidazo[1,2-a]pyridine-3-carboxylic acid] | 11 to 30 | 23 |  | 
O=C(O)C1CN(C[C@H](O)CO)S(=O)(=O)c2c(-c3cccc(C(F)(F)F)c3)c(Cc3cccc4ccccc34)cc(=O)n21 (stereo partly drawn) [Compound 065a, 2-((S)-2,3-dihydroxypropyl)-8-(naphthalen-1-ylmethyl)-6-oxo-9-(3-(trifluoromethyl)phenyl)-3,4-dihydro-2H,6H-pyrido[1,2-e][1,2,5]thiadiazine-4-carboxylic acid 1,1-dioxide] |  |  | 32 | 31 to 60
O=C(O)C1CN(Cc2ccccc2)c2c(-c3cccc(C(F)(F)F)c3)c(Cc3cccc4ccccc34)cc(=O)n21 (centres unmarked) [Compound 187, 1-benzyl-7-(naphthalen-1-ylmethyl)-5-oxo-8-(3-(trifluoromethyl)phenyl)-1,2,3,5-tetrahydroimidazo[1,2-a]pyridine-3-carboxylic acid] | 31 to 60 | 45 |  | 
Cn1c(=O)c2c(nc(CCCCCN3CC(C(=O)O)n4c(c(-c5cccc(C(F)(F)F)c5)c(Cc5cccc6ccccc56)cc4=O)S3(=O)=O)n2C)n(C)c1=O (centres unmarked) [Compound 045, 8-(naphthalen-1-ylmethyl)-6-oxo-9-(3-(trifluoromethyl)phenyl)-2-(5-(1,3,7-trimethyl-2,6-dioxo-2,3,6,7-tetrahydro-1H-purin-8-yl)pentyl)-3,4-dihydro-2H,6H-pyrido[1,2-e][1,2,5]thiadiazine-4-carboxylic acid 1,1-dioxide] |  |  | 15 | 11 to 30
CN1CC(C(=O)O)n2c(c(-c3cccc(C(F)(F)F)c3)c(Cc3cccc4ccccc34)c(C(=O)N3CCOCC3)c2=O)S1(=O)=O (centres unmarked) [Compound 160, 2-methyl-7-(morpholine-4-carbonyl)-8-(naphthalen-1-ylmethyl)-6-oxo-9-(3-(trifluoromethyl)phenyl)-3,4-dihydro-2H,6H-pyrido[1,2-e][1,2,5] thiadiazine-4-carboxylic acid 1,1-dioxide] | 11 to 30 | 17 |  | 
Cn1c(=O)c2c(ncn2CCCCN2CC(C(=O)O)n3c(c(-c4cccc(C(F)(F)F)c4)c(Cc4cccc5ccccc45)cc3=O)S2(=O)=O)n(C)c1=O (centres unmarked) [Compound 033, 2-(4-(1,3-dimethyl-2,6-dioxo-1,2,3,6-tetrahydro-7H-purin-7-yl)butyl)-8-(naphthalen-1-ylmethyl)-6-oxo-9-(3-(trifluoromethyl)phenyl)-3,4-dihydro-2H,6H-pyrido[1,2-e][1,2,5]thiadiazine-4-carboxylic acid 1,1-dioxide] |  |  | 6 | -10 to 10
CCCN1CC(C(=O)O)n2c(c(-c3cccc(C(F)(F)F)c3)c(Cc3cccc4ccccc34)c(Cl)c2=O)S1(=O)=O (centres unmarked) [Compound 142, 7-chloro-8-(naphthalen-1-ylmethyl)-6-oxo-2-propyl-9-(3-(trifluoromethyl)phenyl)-3,4-dihydro-2H,6H-pyrido[1,2-e][1,2,5]thiadiazine-4-carboxylic acid 1,1-dioxide] | 31 to 60 | 40 |  | 
O=C(O)C1CN(CCCCCCN2CC(C(=O)O)n3c2c(-c2cccc(C(F)(F)F)c2)c(Cc2cccc4ccccc24)c(Cl)c3=O)c2c(-c3cccc(C(F)(F)F)c3)c(Cc3cccc4ccccc34)c(Cl)c(=O)n21 (centres unmarked) [Compound 193, 1,1′-(hexane-1,6-diyl)bis(6-chloro-7-(naphthalen-1-ylmethyl)-5-oxo-8-(3-(trifluoromethyl)phenyl)-1,2,3,5-tetrahydroimidazo[1,2-a]pyridine-3-carboxylic acid)] | > 60 | 69 |  | 
O=C(O)C1CN(Cc2ccccc2)c2c(-c3cccc(Br)c3)c(Cc3cccc4ccccc34)c(Cl)c(=O)n21 (centres unmarked) [Compound 198, 1-benzyl-8-(3-bromophenyl)-6-chloro-7-(naphthalen-1-ylmethyl)-5-oxo-1,2,3,5-tetrahydroimidazo[1,2-a]pyridine-3-carboxylic acid] | > 60 | 75 |  | 
NC(=O)c1c(Cc2cccc3ccccc23)c(-c2cccc(C(F)(F)F)c2)c2n(c1=O)C(C(=O)O)CN(C1CCCC1)S2(=O)=O (centres unmarked) [Compound 176, 7-carbamoyl-2-cyclopentyl-8-(naphthalen-1-ylmethyl)-6-oxo-9-(3-(trifluoromethyl)phenyl)-3,4-dihydro-2H,6H-pyrido[1,2-e][1,2,5]thiadiazine-4-carboxylic acid 1,1-dioxide] | > 60 | 98 |  | 
O=C(O)C1CN(Cc2cccnc2)c2c(-c3cccc(C(F)(F)F)c3)c(Cc3cccc4ccccc34)c(Cl)c(=O)n21 (centres unmarked) [Compound 169, 6-chloro-7-(naphthalen-1-ylmethyl)-5-oxo-1-(pyridin-3-ylmethyl)-8-(3-(trifluoromethyl)phenyl)-1,2,3,5-tetrahydroimidazo[1,2-a]pyridine-3-carboxylic acid] | 31 to 60 | 33 |  | 
